Data as given in patent publication US5578634A, “1H-indole-3-acetic acid hydrazide sPLA2 inhibitors” (Eli Lilly and Company, priority 1995, dated 1996).

Legend:
human secreted PLA2 = target: T1, human secreted PLA2 (Homo sapiens, UniProt P14555); test: chromogenic assay of recombinant human secreted phospholipase A2 inhibition (Assay Example 1); type: biochemical; conditions: mean of 3-5 tests; 40° C., 30 minutes, pH 7.5, 405 nanometers; read-out: Inhibition of human secreted PLA2 IC50 ± mean deviation (3-5 tests)
T1 sequence (P14555 21-144): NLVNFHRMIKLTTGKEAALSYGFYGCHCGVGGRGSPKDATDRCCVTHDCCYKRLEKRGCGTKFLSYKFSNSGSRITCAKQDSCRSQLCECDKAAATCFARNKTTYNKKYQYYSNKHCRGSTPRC
From the text: The assay described herein has been adapted for high volume screening using 96 well microtiter plates. A general description of this assay method is found in the article, "Analysis of Human Synovial Fluid Phospholipase A2 on Short Chain Phosphatidylcholine-Mixed Micelles: Development of a Spectrophotometric Assay Suitable for a Microtiterplate Reader", by Laure J. Reynolds, Lori L. […] Reagents, the disclosure of which is incorporated herein by reference. REACTION BUFFER CaCl2.2H20 (1.47 g/L) KCl (7.455 g/L) Bovine Serum Albumin (fatty acid free) (1 g/L) (Sigma A-7030, product of Sigma Chemical Co. St. Louis Mo., USA) TRIS HCl (3.94 g/L) pH 7.5 (adjust with NaOH) ENZYME BUFFER […] 0.2 NaCl Adjust pH to 4.5 with acetic acid DTNB […] RACEMIC DIHEPTANOYL THIO - PC […] TRITON X-100™ prepare at 6.249 mg/ml in reaction buffer to equal […]. REACTION MIXTURE A measured volume of racemic dipheptanoyl thio PC supplied in chloroform at a concentration of 100 mg/ml is taken to dryness and redissolved in 10 millimolar TRITON X-100™ nonionic detergent aqueous solution. Reaction Buffer is added to the solution, then DTNB to give the Reaction Mixture. The reaction mixture thus obtained contains 1 mM diheptanoly thio-PC substrate, 0.29 mM Triton X-100™ detergent, and 0.12 mM DTMB in a buffered aqueous solution at pH 7.5. Assay Procedure: 1. Add 0.2 ml reaction mixture to all wells; 2. Add 10 ul test compound (or solvent blank) to appropriate wells, mix 20 seconds; 3. Add 50 nanograms of sPLA2 (10 microliters) to appropriate wells; 4. Incubate plate at 40° C. for 30 minutes; […] Read absorbance of wells at 405 nanometers with an automatic plate reader. All compounds were tested in triplicate. Typically, compounds were tested at a final concentration of 5 ug/ml. […] Lack of color development at 405 nanometers evidenced inhibition. Compounds initially found to be active were reassayed to confirm their activity and, if sufficiently active, IC50 values were determined. […] In all cases, % inhibition measured at 405 nanometers generated by enzyme reactions containing inhibitors relative to the uninhibited control reactions was determined. Each sample was titrated in triplicate and result values were averaged for plotting and calculation of IC50 values. […] IC50 values were determined at least three times for each compound tested.

sPLA2 contraction = target: T2, sPLA2 contraction (Homo sapiens, UniProt P14555); test: sPLA2-induced contraction of guinea pig lung pleural strips, tissue test (Assay Example 2); parameters: species or system Male Hartley strain guinea pigs; key to transient contraction of tissue during test: *: indicates transient contraction of tissue during test; conditions: for inhibition at 30 µM: compound concentration 30 uM, read-out: % suppression of sPLA2 contraction at 30 uM
T2 sequence (P14555 21-144): T1 sequence (P14555 21-144)
From the text: Male Hartley strain guinea pigs (500-700 g) were killed by cervical dislocation and their heart and lungs removed intact and placed in aerated (95% O2 :5% CO2) Krebs buffer. Dorsal pleural strips (4×1×25 mm) were dissected from intact parenchymal segments (8×4×25 mm) cut parallel to the outer edge of the lower lung lobes. Two adjacent pleural strips, obtained from a single lobe and representing a single tissue sample, were tied at either end and independently attached to a metal support rod. One rod was attached to a Grass force-displacement transducer (Model FTO3C, product of Grass Medical Instruments Co., Quincy, Mass., USA). […] All tissues were placed in 10 ml jacketed tissue baths maintained at 37° C. The tissue baths were continuously aerated and contained a modified Krebs solution of the following composition (millimolar) NaCl, 118.2; KCl, 4.6; CaCl2.2H2 O, 2.5; MgSO4.7H2 O, 1.2; NaHCO3, 24.8; KH2 PO4, 1.0; and dextrose, 10.0. Pleural strips from the opposite lobes of the lung were used for paired experiments. […] The tissues were allowed to equilibrate for 45 min. as the bath fluid was changed periodically. Cumulative concentration-response curves: Initially tissues were challenged 3 times with KCl (40 mM) to test tissue viability and to obtain a consistent response. After recording the maximal response to KCl the tissues were washed and allowed to return to baseline before the next challenge. Cumulative concentration-response curves were obtained from pleural strips by increasing the agonist concentration (sPLA2) in the tissue bath by half-log10 increments while the previous concentration remained in contact with the tissues (Ref.1, supra.) Agonist concentration was increased after reaching the plateau of the contraction elicited by the preceding concentration. One concentration-response curve was obtained from each tissue. To minimize variability between tissues obtained from different animals, contractile responses were expressed as a percentage of the maximal response obtained with the final KCl challenge. When studying the effects of various drugs on the contractile effects of sPLA2, the compounds and their respective vehicles were added to the tissues 30 min. prior to starting the sPLA2 concentration-response curves. statistical analysis: Data from different experiments were pooled and presented as a percentage of the maximal KCl responses (mean±S.E.). To estimate the drug induced rightward shifts in the concentration response curves, the curves were analyzed simultaneously using statistical nonlinear modeling methods similar to those described by Waud (1976), Equation 26, p. 163, (Ref.2). The model includes four parameters: the maximum tissue response which was assumed the same for each curve, the ED50 for the control curve, the steepness of the curves, and the PA2, the concentration of antagonist that requires a two-fold increase in agonist to achieve an equivalent response. The Schild slope was determined to be 1, using statistical nonlinear modeling methods similar to those described by Waud (1976), Equation 27, p. 164 (Ref. 2). […] To estimate the drug-induced suppression of the maximal responses, sPLA2 responses (10 ug/ml) were determined in the absence and presence of drug, and percent suppression was calculated for each pair of tissues. Ref. 1--van Rossum, J. M.: Cumulative dose-response curves. II. Technique for the making of dose-response curves in isolated organs and the evaluation of drug parameters. Arch. Int. Pharmacodyn. Ther. 143: 299-330, 1963. Ref. 2--Waud, D.: Analysis of dose-response relationships. in Advances in General and Cellular Pharmacology […]

Row | Compound | IC50 (human secreted PLA2) | other results
1 | CCc1c(CC(=O)NN)c2cc(OC3CCCC3)ccc2n1Cc1ccccc1 [Example 2, 5-Cyclopentoxy-2-ethyl-1-(phenylmethyl)-1H-indole-3-acetic acid hydrazide] | 0.47 ± 0.15 µM | inhibition at 30 µM (sPLA2 contraction; guinea pig, sPLA2 10 ug/ml): 60.5 ± 12.8%
2 | CCCc1c(CC(=O)NN)c2cc(OC)ccc2n1Cc1ccccc1 [Example 5, 5-Methoxy-1-(phenylmethyl)-2-propyl-1H-indole-3-acetic acid hydrazide] | 70.5 ± 2.89 µM | inhibition at 30 µM (sPLA2 contraction; guinea pig, sPLA2 10 ug/ml): 21.2 ± 12.5%
3 | CCc1c(CC(=O)NN)c2cc(OC)ccc2n1Cc1ccccc1 [Example 3, 2-Ethyl-5-methoxy-1-(phenylmethyl)-1H-indole-3-acetic acid hydrazide] | 0.42 ± 0.19 µM | transient contraction of tissue during test (sPLA2 contraction; footnote * of Table 2): *; inhibition at 30 µM (sPLA2 contraction; guinea pig, sPLA2 10 ug/ml): 77.9 ± 4.2%
4 | Cc1c(CC(=O)NN)c2cc(Br)ccc2n1Cc1cccc(OCc2ccccc2)c1 [Example 52, 1-[(3-Benzyloxyphenyl)methyl]-5-bromo-2-methyl-1H-indole-3-acetic acid hydrazide] | 0.71 ± 0.34 µM | inhibition at 10 µM (sPLA2 contraction; guinea pig, compound concentration 10 uM, sPLA2 10 ug/ml, read-out: % suppression of sPLA2 contraction at 10 uM): 37.8 ± 15.5%; inhibition at 30 µM (sPLA2 contraction; guinea pig, sPLA2 10 ug/ml): 29.1 ± 7%
5 | Cc1c(CC(=O)NN)c2cc(Cl)ccc2n1Cc1ccccc1 [Example 48, 5-Chloro-2-methyl-1-(phenylmethyl)-1H-indole-3-acetic acid hydrazide] | 0.74 ± 0.15 µM | –
6 | COc1ccc2c(c1)c(CC(=O)NN)c(C)n2CCCc1ccccc1 [Example 41, 5-Methoxy-2-methyl-1-(3-phenylpropyl)-1H-indole-3-acetic acid hydrazide] | 16.8 ± 2.89 µM | –
7 | Cc1c(CC(=O)NN)c2cc(OCc3ccc4ccccc4n3)ccc2n1Cc1ccccc1 [Example 62, 2-Methyl-1-(phenylmethyl)-5-[(2-quinolyl)methoxy]-1H-indole-3-acetic acid hydrazide] | 0.36 ± 0.17 µM | –
8 | COc1ccc2c(c1)c(CC(=O)NN)c(C)n2Cc1c(Cl)cccc1Cl [Example 21, 1-(2,6-Dichlorophenylmethyl)-5-methoxy-2-methyl-1H-indole-3-acetic acid hydrazide] | 0.64 ± 0.19 µM | –
9 | COc1ccc2c(c1)c(CC(=O)NN)c(C)n2Cc1ccccc1OC [Example 26, 5-Methoxy-1-[(2-methoxyphenyl)methyl]-2-methyl-1H-indole-3-acetic acid hydrazide] | 3.26 ± 1.74 µM | –
10 | COc1ccc2c(c1)c(CC(=O)NN)c(C)n2Cc1cccc(C(F)(F)F)c1 [Example 23, 5-Methoxy-2-methyl-1-[(3-trifluoromethylphenyl)methyl]-1H-indole-3-acetic acid hydrazide] | 0.89 ± 0.52 µM | –
11 | Cc1c(CC(=O)NN)c2cc(F)ccc2n1Cc1ccccc1 [Example 47, 5-Fluoro-2-methyl-1-(phenylmethyl)-1H-indole-3-acetic acid hydrazide] | 1.49 ± 0.34 µM | –
12 | CCCCCCCCCCOc1cccc(Cn2c(C)c(CC(=O)NN)c3cc(OC)ccc32)c1 [Example 29, 1-[(3-Decyloxyphenyl)methyl]-5-methoxy-2-methyl-1H-indole-3-acetic acid hydrazide] | 0.84 ± 0.31 µM | –
13 | 5-Methoxy-2-methyl-1-(phenylmethyl)-1H-indole-3-propanoic acid hydrazide [Example 65] | 32.6 µM | –
14 | COc1ccc2c(c1)c(CC(=O)NN)c(C)n2Cc1ccc2ccccc2n1 [Example 40, 5-Methoxy-2-methyl-1-[(2-quinolyl)methyl]-1H-indole-3-acetic acid hydrazide] | 8.15 ± 3.27 µM | –
15 | Cc1c(CC(=O)NN)c2cc(OCc3ccc4ccccc4n3)ccc2n1Cc1ccc(Cl)cc1 [Example 63, 1-[(4-Chlorophenyl)methyl]-2-methyl-5-[(2-quinolyl)methoxy]-1H-indole-3-acetic acid hydrazide] | 8.46 ± 5.45 µM | –
16 | COc1ccc2c(c1)c(CC(=O)NN)c(C)n2CC(C)C [Example 13, 5-Methoxy-2-methyl-1-(2-methyl-1-propyl)-1H-indole-3-acetic acid hydrazide] | 9.88 ± 3.41 µM | –
17 | COc1ccc2c(c1)c(CC(=O)NN)c(C)n2C(C)c1ccccc1 (stereo not shown) [Example 36, 5-Methoxy-2-methyl-1-(1-phenylethyl)-1H-indole-3-acetic acid hydrazide] | 5.32 ± 1.93 µM | –
18 | 5-Methoxy-1-(phenylmethyl)-1H-indole-3-propanoic acid hydrazide [Example 64] | 5.9 ± 2.99 µM | –
19 | COc1ccc2ccccc2c1Cn1c(C)c(CC(=O)NN)c2ccccc21 [Example 11, 1-(2-Methoxy-1-naphthalenylmethyl)-2-methyl-1H-indole-3-acetic acid hydrazide] | 11.1 ± 1.8 µM | –
20 | Cc1c(CC(=O)NN)c2ccccc2n1Cc1ccccc1 [Example 10, 2-Methyl-1-(phenylmethyl)-1H-indole-3-acetic acid hydrazide] | 2.36 ± 0.5 µM | –
21 | Cc1c(CC(=O)NN)c2cc(Cl)ccc2n1Cc1cccc(Cl)c1 [Example 49, 5-Chloro-[(3-chlorophenyl)methyl]-2-methyl-1H-indole-3-acetic acid hydrazide] | 1.63 ± 0.74 µM | –
22 | 5-Methoxy-1-(phenylmethyl)-1H-indole-3-butanoic acid hydrazide [Example 66] | 9.96 ± 5.61 µM | –
23 | COc1ccc2c(c1)c(CC(=O)NN)c(C)n2Cc1ccc(O)cc1 [Example 33, 1-[(4-Hydroxyphenyl)methyl]-5-methoxy-2-methyl-1H-indole-3-acetic acid hydrazide] | 5.96 ± 2.03 µM | –
24 | COc1ccc2c(c1)c(CC(=O)NN)c(C)n2Cc1ccncc1 [Example 39, 5-Methoxy-2-methyl-1-[(4-pyridyl)methyl]-1H-indole-3-acetic acid hydrazide] | 45.9 ± 13.1 µM | –
25 | Cc1c(CC(=O)NN)c2cc(C(C)(C)C)ccc2n1Cc1ccccc1 [Example 60, 5-tert-Butyl-2-methyl-1-(phenylmethyl)-1H-indole-3-acetic acid hydrazide] | 1.02 ± 0.35 µM | –
